In experiment [1] the target is α4β1 integrin (Homo sapiens, UniProt P05556+P13612). The experiment is described as follows: a4b1 IC50 (inhibition of α4β1 integrin; no method described). The experiment is classed as binding.
In experiment [2] the target is T1, α4β7 integrin (Homo sapiens, UniProt P13612+P26010).
T1 sequence (P13612 34-1032): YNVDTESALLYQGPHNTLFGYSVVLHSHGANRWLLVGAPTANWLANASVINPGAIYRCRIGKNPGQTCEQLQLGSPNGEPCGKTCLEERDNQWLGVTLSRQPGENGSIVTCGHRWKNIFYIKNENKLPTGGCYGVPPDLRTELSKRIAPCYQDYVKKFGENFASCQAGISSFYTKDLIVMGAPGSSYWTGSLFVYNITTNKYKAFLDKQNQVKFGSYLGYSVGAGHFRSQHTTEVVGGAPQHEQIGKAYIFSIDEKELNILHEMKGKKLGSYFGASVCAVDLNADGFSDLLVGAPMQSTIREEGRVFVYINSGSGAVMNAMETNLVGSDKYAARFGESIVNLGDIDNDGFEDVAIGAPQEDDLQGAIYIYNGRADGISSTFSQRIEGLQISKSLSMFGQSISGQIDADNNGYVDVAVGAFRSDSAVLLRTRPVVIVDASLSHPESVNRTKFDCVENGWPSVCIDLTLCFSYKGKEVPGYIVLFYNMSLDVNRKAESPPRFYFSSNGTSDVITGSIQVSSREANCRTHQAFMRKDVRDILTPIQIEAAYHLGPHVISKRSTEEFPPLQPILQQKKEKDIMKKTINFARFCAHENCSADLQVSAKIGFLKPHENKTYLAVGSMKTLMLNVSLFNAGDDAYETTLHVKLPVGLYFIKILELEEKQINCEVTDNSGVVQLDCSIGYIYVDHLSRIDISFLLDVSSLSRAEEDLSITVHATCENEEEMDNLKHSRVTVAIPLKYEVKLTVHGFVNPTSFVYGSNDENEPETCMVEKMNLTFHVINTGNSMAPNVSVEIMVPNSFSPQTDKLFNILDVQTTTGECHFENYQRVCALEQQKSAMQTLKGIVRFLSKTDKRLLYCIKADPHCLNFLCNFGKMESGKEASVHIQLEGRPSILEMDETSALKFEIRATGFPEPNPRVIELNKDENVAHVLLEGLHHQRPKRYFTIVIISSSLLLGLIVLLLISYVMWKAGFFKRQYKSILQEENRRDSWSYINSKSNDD
T1 sequence (P26010 20-798): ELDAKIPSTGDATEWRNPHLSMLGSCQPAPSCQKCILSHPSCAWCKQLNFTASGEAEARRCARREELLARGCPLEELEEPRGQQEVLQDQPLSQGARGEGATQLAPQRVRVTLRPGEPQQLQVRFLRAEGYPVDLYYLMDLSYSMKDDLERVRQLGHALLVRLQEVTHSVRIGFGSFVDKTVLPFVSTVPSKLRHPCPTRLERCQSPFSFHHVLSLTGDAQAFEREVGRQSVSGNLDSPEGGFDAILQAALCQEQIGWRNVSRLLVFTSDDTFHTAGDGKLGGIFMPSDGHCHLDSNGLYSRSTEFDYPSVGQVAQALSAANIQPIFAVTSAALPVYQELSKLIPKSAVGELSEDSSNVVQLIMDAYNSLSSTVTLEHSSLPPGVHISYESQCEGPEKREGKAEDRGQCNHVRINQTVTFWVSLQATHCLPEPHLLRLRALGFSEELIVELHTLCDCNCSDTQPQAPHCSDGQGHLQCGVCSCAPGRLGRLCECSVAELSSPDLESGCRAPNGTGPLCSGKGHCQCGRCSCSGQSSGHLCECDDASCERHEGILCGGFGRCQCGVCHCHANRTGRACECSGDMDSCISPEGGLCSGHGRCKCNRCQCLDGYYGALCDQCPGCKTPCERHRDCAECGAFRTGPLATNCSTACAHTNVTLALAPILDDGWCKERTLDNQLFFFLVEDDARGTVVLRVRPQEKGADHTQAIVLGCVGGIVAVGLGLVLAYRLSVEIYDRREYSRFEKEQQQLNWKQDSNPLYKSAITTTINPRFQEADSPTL
As to the kind of experiment: a4b7 IC50 (inhibition of α4β7 integrin; no method described). The class given is binding.

Chain of α4β1 integrin (P05556 21-798, one chain of several): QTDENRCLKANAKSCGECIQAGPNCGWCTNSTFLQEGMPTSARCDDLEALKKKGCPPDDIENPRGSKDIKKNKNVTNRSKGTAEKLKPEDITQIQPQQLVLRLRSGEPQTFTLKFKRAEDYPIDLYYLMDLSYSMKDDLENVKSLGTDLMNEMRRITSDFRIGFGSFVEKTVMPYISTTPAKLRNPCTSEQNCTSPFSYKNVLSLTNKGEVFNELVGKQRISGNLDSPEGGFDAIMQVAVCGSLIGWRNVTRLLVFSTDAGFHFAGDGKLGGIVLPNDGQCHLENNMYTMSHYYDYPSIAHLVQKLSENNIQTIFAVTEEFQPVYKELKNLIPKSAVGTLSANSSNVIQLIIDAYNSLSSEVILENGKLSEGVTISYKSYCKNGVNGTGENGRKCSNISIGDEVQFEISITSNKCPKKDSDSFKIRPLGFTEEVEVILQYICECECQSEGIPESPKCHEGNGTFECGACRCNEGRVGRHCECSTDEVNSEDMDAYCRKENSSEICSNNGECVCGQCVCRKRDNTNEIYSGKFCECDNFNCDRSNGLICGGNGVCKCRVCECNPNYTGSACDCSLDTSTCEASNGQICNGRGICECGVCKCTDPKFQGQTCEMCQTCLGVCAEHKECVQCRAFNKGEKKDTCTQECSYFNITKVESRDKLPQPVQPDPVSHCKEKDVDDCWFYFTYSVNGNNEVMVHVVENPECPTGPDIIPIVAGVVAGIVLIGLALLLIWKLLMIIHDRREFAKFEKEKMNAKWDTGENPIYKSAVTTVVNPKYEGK

Regarding `Cc1ccccc1C(F)(F)c1cccc([C@H](CC(=O)O)NC(=O)Nc2c(O)ccn(C)c2=O)c1` [Compound 3-65, sodium (S)-3-(3-(difluoro(o-tolyl)methyl)phenyl)-3-(3-(1-methyl-4-oxido-2-oxo-1,2-dihydropyridin-3-yl)ureido)propanoate], the IC50 in experiment [1] was < 20 nM; in experiment [2], < 200 nM.

With `Cn1ccc(O)c(NC(=O)N[C@@H](CC(=O)O)c2cccc(Oc3ccccc3)c2)c1=O` [Compound 3-71, sodium (S)-3-(3-(1-methyl-4-oxido-2-oxo-1,2-dihydropyridin-3-yl)ureido)-3-(3-phenoxyphenyl)propanoate], the figures for the IC50 in experiment [1] and in experiment [2] were < 200 nM and < 20 nM, respectively.

Turning to `Cc1ccc(Oc2cccc([C@H](CC(=O)O)NC(=O)Nc3c(O)ccn(C)c3=O)c2)cc1` [Compound 3-85, sodium (S)-3-(3-(1-methyl-4-oxido-2-oxo-1,2-dihydropyridin-3-yl)ureido)-3-(3-(p-tolyloxy)phenyl)propanoate], in experiment [1], the IC50 is < 20 nM.

Consider `Cn1ccc(O)c(NC(=O)N[C@@H](CC(=O)O)c2cccc(Oc3ccc(F)cc3F)c2)c1=O` [Compound 3-86, sodium(S)-3-(3-(2,4-difluorophenoxy)phenyl)-3-(3-(1-methyl-4-oxido-2-oxo-1,2-dihydropyridin-3-yl)ureido)propanoate], for which the IC50 in experiment [1] was < 20 nM.

Turning to `Cc1cccc(C)c1Oc1cccc([C@H](CC(=O)O)NC(=O)Nc2c(O)ccn(C)c2=O)c1` [Compound 3-87, sodium(S)-3-(3-(2,6-dimethylphenoxy)phenyl)-3-(3-(1-methyl-4-oxido-2-oxo-1,2-dihydropyridin-3-yl)ureido)propanoate], in experiment [1], the IC50 was < 20 nM.

For the compound `Cn1ccc(O)c(NC(=O)N[C@@H](CC(=O)O)c2cccc(Cc3ccccc3C(F)(F)F)c2)c1=O` [Compound 3-88, sodium (S)-3-(3-(1-methyl-4-oxido-2-oxo-1,2-dihydropyridin-3-yl)ureido)-3-(3-(2-(trifluoromethyl)benzyl)phenyl)propanoate], the IC50 in experiment [1] is < 20 nM.

Consider `Cn1ccc(O)c(NC(=O)N[C@@H](CC(=O)O)c2cccc(Cc3cccc(C(F)(F)F)c3)c2)c1=O` [Compound 3-89, sodium (S)-3-(3-(1-methyl-4-oxido-2-oxo-1,2-dihydropyridin-3-yl)ureido)-3-(3-(3-(trifluoromethyl)benzyl)phenyl)propanoate], for which, in experiment [1], the IC50 is < 20 nM.

In the case of `Cn1ccc(O)c(NC(=O)N[C@@H](CC(=O)O)c2cccc(Cc3ccc(C(F)(F)F)cc3)c2)c1=O` [Compound 3-90, sodium (S)-3-(3-(1-methyl-4-oxido-2-oxo-1,2-dihydropyridin-3-yl)ureido)-3-(3-(4-(trifluoromethyl)benzyl)phenyl)propanoate], the IC50 in experiment [1] was < 20 nM.

Regarding `Cn1ccc(O)c(NC(=O)N[C@@H](CC(=O)O)c2cccc(Cc3ccccc3OC(F)F)c2)c1=O` [Compound 3-91, sodium(S)-3-(3-(2-(difluoromethoxy)benzyl)phenyl)-3-(3-(1-methyl-4-oxido-2-oxo-1,2-dihydropyridin-3-yl)ureido) propanoate], the IC50 in experiment [1] was < 20 nM.

As for `COc1ccccc1Cc1cccc([C@H](CC(=O)O)NC(=O)Nc2c(O)ccn(C)c2=O)c1` [Compound 3-92], the IC50 in experiment [1] was < 20 nM.

`Cn1ccc(O)c(NC(=O)N[C@@H](CC(=O)O)c2cccc(Cc3ccccc3F)c2)c1=O` [Compound 3-93, sodium (S)-3-(3-(2-fluorobenzyl)phenyl)-3-(3-(1-methyl-4-oxido-2-oxo-1,2-dihydro-pyridin-3-yl)ureido)propanoate]: the IC50 in experiment [1] was < 20 nM.

As for `Cc1cccc(C)c1Cc1cccc([C@H](CC(=O)O)NC(=O)Nc2c(O)ccn(C)c2=O)c1` [Compound 3-94, sodium (S)-3-(3-(2,6-dimethylbenzyl)phenyl)-3-(3-(1-methyl-4-oxido-2-oxo-1,2-dihydropyridin-3-yl)ureido)propanoate], the IC50 in experiment [1] was < 20 nM.

As to `Cc1ccccc1Cc1ccc([C@H](CC(=O)O)NC(=O)Nc2c(O)ccn(C)c2=O)s1` [Compound 3-95, sodium (S)-3-(3-(1-methyl-4-oxido-2-oxo-1,2-dihydropyridin-3-yl)ureido)-3-(5-(2-methylbenzyl)thiophen-2-yl)propanoate], the IC50 in experiment [1] was < 20 nM.

As for `Cn1ccc(O)c(NC(=O)N[C@@H](CC(=O)O)c2ccc(Cc3ccccc3)s2)c1=O` [Compound 3-96, sodium (S)-3-(5-benzylthiophen-2-yl)-3-(3-(1-methyl-4-oxido-2-oxo-1,2-dihydro-pyridin-3-yl)ureido)propanoate], the IC50 in experiment [1] was < 20 nM.

In general, IC50 refers to the point on the concentration scale where inhibition reaches its midpoint. Low readings indicate greater potency, high ones weaker potency.

(Values after patent US10246451B2, “Propionic acid derivatives and methods of use thereof” (Aviara Pharmaceuticals, Inc., priority 2017, dated 2019).)
